Experimental data reported in patent US20230147744A1, “METHODS TO ENRICH ENTEROENDOCRINE CELLS AND THEIR SUBTYPES IN THE CONTIGUOUS, INTESTINAL MONOLAYER SYSTEMS” (The University of North Carolina at Chapel Hill, priority 2020, published 2023).
Where “and” joins values, the source holds several entries; their conditions need not be identical. Identical values can stand only once.

Experiments:
[1] = test system: EEC (ChgA+) and EC (5HT+) cells; test: Number of EEC (ChgA+) and EC (5HT+) cells on monolayers by immunofluorescence staining; assay type: cell-based
Method: (§1) The fraction of EC among EEC remained in the range of 45-51% in these differentiation conditions, which is consistent with their fraction in the body that EC make up over 70% of the EEC population in the proximal colon and falls to around 40% in the rectum.^2 To test if the enriched EC cells increases 5HT secretion, the monolayers were stimulated with vehicle (DMSO) or forskolin (10 μM). […] The induction is 6.1× over the vehicle control (0.62±0.07 ng/mL). Therefore, the enriched EC cells improves the 5HT secretion assay by increasing the signal/background ratio.
It is likely that stem cells make lineage-fate decisions at the proliferation stage toward enterocytes and goblets cells, which are the major cell types in the intestinal epithelium. We can add signaling molecules, such as CHIR99021, to prevent the early lineage-fate decision and force the stem cells to stay at their ground state. CHIR99021 activates Wnt signaling by inhibition of GSK3. When the stem cells were cultured in EM under 3 μM CHIR99021 prior to conventional submerged culture in DM, the presence of EC cells was increased by almost 200% (FIGS. 11A and 11B). […] Besides CHIR99021, other Wnt activators (WAY316606, ABC99, IQ1, arylpyrimidine), and recombinant proteins of Wnt-3A and R-spondin (Wnt signaling enhancer) may be able to increase the formation of EC cells. We have not studied the synergistic effect of Wnt activator (in EM) and VIP-assisted ALI (in DM), but we expect the combination of both strategies will further increase the formation of EEC and EC cells.

[2] = test system: colonic monolayers derived from human transverse colon; test: Monolayer barrier integrity (Papp, TEER); assay type: cell-based; conditions: VIP-assisted ALI culture, n=6
Source text: Besides the elevated 5HT secretion, an additional advantage of VIP-assisted ALI culture is the improved barrier integrity (FIG. 4D). […] The cell respiration combined with the low diffusion rate of oxygen in the growth medium can lead to a reduced oxygen availability to the cells.^22 ALI culture can increase the oxygen availability, but the cells were stressed due to the complete dry up at the apical surface. […] Conversely, VIP-assisted ALI culture maintained a thin layer of fluid (about 0.4 mm thick) at the apical side, thus increasing the oxygen availability and at the same time as eliminating the stress from dry up. The high integrity of monolayers is needed to effectively segregates the apical and basal reservoirs to prevent the leakage of the stimulants and 5HT.

GLP-1+ L cells = test: Density of GLP-1+ L-cells on differentiated colonic monolayers; assay type: cell-based, human; conditions: for formation of L-cells: addition during differentiation, 4 days
Source text: Enteroendocrine (EEC) cells within the intestinal epithelium consist of at least 15 different subtypes. Enterochromaffin (EC) cells are the most abundant subtype, comprising about 40% of EEC cells in the gastrointestinal tract. Besides EC cells, at least one other important EE subtype is L-cells, which are major regulators of the gut-brain interactions and are pivotal in regulating appetite and glucose homeostasis^4. L-cells co-secrete peptide hormones GLP-1 and PYY in response to the ingestion of food^5-8. GLP-1 stimulates the secretion of insulin from pancreatic β-cells^9,10, decreases gastric emptying and increases satiation^11. PYY slows GI motility and reduces food intake^12. Due to their important function as regulators of postprandial response to nutrients, L-cells are of specific interest in the field of obesity and diabetes^3-17. L-cells were also identified in the VIP-ALI cultured monolayers at a density of 12±2 mm^2 and constituted about 14% of the EE population (FIG. 7). However, the density of L-cells is still too low to perform a reliable functional assay of GLP-1/PYY secretion. Thus, further experiments were conducted to develop optimal protocols to enrich L-cells (see Example 7).
Experiments were conducted to systemically optimize four conditions to enrich L-cells: (1) ±ALI, (2) ±VIP, (3) R-spondin/Noggin ratio at 1:4, 1:1 and 4:1 in differentiation medium, (4) ±BIMU8 (a potent 5-HT4 agonist). The colonic stem cells were plated on a porous membrane coated with Matrigel and cultured for 3 days in growth factor-enriched medium until the cell monolayer reach confluence. Then the cells were differentiated for 4 days and the density of GLP-1^+ L cells was used as the readout (FIG. 8A). […] The R-spondin/Noggin ratio in differentiation medium also affected the density of L-cells, and the best result was obtained by using a ratio of 4/1. By using the conditions disclosed herein (ALI, VIP, R-spondin/Noggin=4/1, BIMU8), 137±12 cells/mm^2 GLP-1^+ L-cells were obtained, which is about 46 times higher than 3±2 cells/mm^2 in the previously used conditions (submerged, —VIP, R-spondin/Noggin=1/1, -BIMU8), and 11 times higher than 12±2 mm^2 in VIP-ALI culture (+ALI, +VIP, R-spondin/Noggin=1/1, -BIMU8).

[3] = test system: EC cells in monolayers derived from human transverse colon stem cells; test: 5HT secretion assay (ELISA of basal medium) on stem-cell-derived colonic monolayers after apical stimulation; assay type: cell-based; conditions: for 5HT induction: pungent food ingredient screen, apical stimulation 4 h, EC-enriched monolayers, donor 2
[4] = test system: EC cells in monolayers derived from human transverse colon stem cells; test: as above; assay type: cell-based
Source text: Culture conditions for intestinal epithelial monolayer platform have been optimized in a previous publication, and the medium composition for yielding the maximal expression levels of EEC cell lineage marker gene ChgA was investigated.^11 Nicotinamide and p38 MAP kinase inhibitor (SB202190), two compounds commonly used in intestinal epithelial cell culture, are removed from medium due to their suppression of differentiation towards secretory cells. Inclusion of A 8301, a TGF-β receptor signaling inhibitor, is required for proper differentiation and cell morphology of monolayer cultures. Herein, the same medium composition was adopted and the in vitro monolayers were generated from stem cells derived from human transverse colon using the traditional submerged culture. The EEC (ChgA+) and EC (5HT+) cells presented at a density of 22±5 and 10±3 mm^−2, respectively (FIG. 2A, 2B). Accordingly, the total number of EC cells in a 96-well insert (surface area=11 mm^2) is 110±33. To test if the number of EC cells is enough for functional assays, the monolayers were stimulated with vehicle (dimethyl sulfoxide [DMSO]) or forskolin (10 μM) at the apical side for 4 h, and the released 5HT from the basal side was collected and quantified (FIG. 2C). Forskolin is a potent stimulus of 5HT release though activation of the cAMP-dependent pathway.^18 In three independent experiments, stimulated 5HT secretion by forskolin was 0.97±0.34, 0.88±0.28, and 0.60±0.23 ng/mL, respectively, corresponding to 3.6×, 2.1× and 2.4× induction over the vehicle controls (0.27±0.10, 0.42±0.18 ng/mL, and 0.25±0.07 respectively). Significant inter-experiment variability was observed due to high standard deviation of the 5HT measurements: the results in the first experiment were considered to be statistically non-significant (p>0.05, t-test), statistically significant (p<0.05) in the second one, but statistically non-significant (p>0.05) again in the third experiment. The high standard deviation came from a number of sources: error in 5HT measurement through enzyme-linked immunosorbent assay (ELISA), well-to-well variation, 5HT residue (mainly from the fetal bovine serum in the medium) left in the well, and 5HT that spontaneously leached out from the apoptotic ECs during assay. To improve the reliability of 5HT secretion assay and its signal/background ratio, the number of EEC and EC cells in monolayers need to be enriched.
as §1
As the generation and storage of 5HT inside granules of EC cells depends on the cell maturation, the level of 5HT secretion is affected by the differentiation length of the monolayers. To find out the optimal duration for differentiation, the monolayers were subjected to VIP-assisted ALI culture for 3-7 days. As expected, the forskolin stimulated 5HT secretion increased with differentiation length (due to cell maturation), so did the non-stimulated basal secretion (FIG. 4E). The barrier integrity was remained (Papp<4×10^−7 cm/s) for all samples, except for those under 7 days in differentiation in which the cells may start to undergo apoptosis (FIG. 4F). 5 days in differentiation was considered to be optimal since it generated monolayers with high 5HT induction (5.7×) and monolayer barrier integrity. This duration is coincident with life span of differentiated epithelium in human colon. Unless otherwise specified, 5 days were used for differentiation in this invention. […]

[5] = ALI, VIP, R-spondin/Noggin=4/1, BIMU8

Compound: vasoactive intestinal peptide [VIP]
- number of EC compared with submerged culture ([1]; VIP added to submerged culture): 180%
- number of EEC compared with submerged culture ([1]; VIP added to submerged culture): 177%
- density of EC ([1]; combination of ALI and VIP): 43±9 mm^−2
- density of EEC ([1]; combination of ALI and VIP): 83±11 mm^−2
- number of EC compared with traditional submerged culture without VIP ([1]; combination of ALI and VIP): 430%
- number of EEC compared with traditional submerged culture without VIP ([1]; combination of ALI and VIP): 377%
- transepithelial electrical resistance (TEER) [2]: 842±166 ohms cm^2
- L-cells as share of the EE population (GLP-1+ L cells; VIP-ALI cultured monolayers): about 14%
- formation of L-cells (GLP-1+ L cells): increased the formation of L-cells

Compound: COc1cc(/C=C/C(=O)CC(=O)/C=C/c2ccc(O)c(OC)c2)ccc1O [curcumin]
- EC50 ([3]; Homo sapiens, dose-dependent stimulation of 5HT secretion, read-out: median effective dose (E50) for 5HT secretion): 51 µM
- 5HT induction [3]: 7.3 ×

Compound: C=C[C@@]1(C)CC(=O)[C@]2(O)[C@@]3(C)[C@@H](O)CCC(C)(C)[C@@H]3[C@H](O)[C@H](OC(C)=O)[C@@]2(C)O1 [forskolin]
- 5HT induction (forskolin/DMSO) ([4]; donor 1, 2, and 5): > 5.0
- 5HT induction (forskolin/DMSO) ([4]; donor 3 and 4): < 3.6
- stimulated 5HT secretion ([4]; forskolin 10 μM apical 4 h, monolayers from traditional submerged culture, independent experiments): 0.97 ± 0.34 ng/mL and 0.88 ± 0.28 ng/mL and 0.60 ± 0.23 ng/mL and 0.97 ± 0.44 ng/mL
- induction of 5HT secretion over the vehicle control ([4]; forskolin 10 μM apical 4 h, submerged culture, three independent experiments): 3.6 × and 2.1 × and 2.4 ×
- induction of 5HT secretion over the vehicle control ([4]; forskolin 10 μM, VIP-assisted ALI culture): 6.1 ×
- 5HT secretion higher than that from submerged culture ([4]; forskolin 10 μM, VIP-assisted ALI vs submerged culture): 390%
- 5HT secretion under forskolin stimulation ([4]; forskolin 10 μM, monolayer from VIP-assisted ALI culture): 3.79 ± 0.57 ng/mL
- 5HT induction ([4]; forskolin, VIP-assisted ALI culture, 5 days in differentiation (duration study 3-7 days)): 5.7 ×
- induction of 5HT secretion (forskolin/DMSO) ([4]; stem cell passage numbers 7, 9, 11, 13 and 15): 4.1-5.7 ×
- 5HT induction [3]: 4.9 ×

Compound: Cc1c[nH]c(-c2cnc(NCCNc3ccc(C#N)cn3)nc2-c2ccc(Cl)cc2Cl)n1 [CHIR99021]
- increase of presence of EC cells ([1]; 3 μM CHIR99021 in EM prior to conventional submerged culture in DM): ~200%

Compound: CC(C)n1c(=O)n(C(=O)NC2CC3CCC(C2)N3C)c2ccccc21 (stereo not drawn) [BIMU8]
- L-cell density, times higher than VIP-ALI culture (+ALI, +VIP, R-spondin/Noggin=1/1, -BIMU8) (GLP-1+ L cells; [5]): 11 times
- L-cell density, times higher than previously used conditions (submerged, -VIP, R-spondin/Noggin=1/1, -BIMU8) (GLP-1+ L cells; [5]): about 46 times
- GLP-1+ L-cells density (GLP-1+ L cells; ALI, VIP, R-spondin/Noggin=4/1, BIMU8, 4 days differentiation): 137±12 cells/mm^2
- formation of L-cells (GLP-1+ L cells): increased the formation of L-cells

Compound: O=CC=Cc1ccccc1 [Cinnamaldehyde]
- 5HT induction [3]: 1.8 ×
